Experimental data as given in patent publication US9423404B1, “Method of screening for an agent that enhances beige fat adipogenesis” (The Board of Trustees of the Leland Stanford Junior …, priority 2013, dated 2016).

Experiments:
[1] = test system: differentiated human fibroblasts; experiment: Lipolysis assay (glycerol release); assay type: cell-based; conditions: for increase in glycerol release compared to the undifferentiated cells: 10 μM isoproterenol 24 hrs
Method: Lipolysis assay. To measure lipolysis activity, control and differentiated fibroblasts, were starved in DMEM containing 1% FBS overnight. Cells were then incubated for 24 hrs in HBSS (Hank's balanced salt solution) containing 2% fatty-acid-free BSA and 10 μM isoproterenol. The culture medium was collected for glycerol measurement using the free glycerol reagent (Sigma, St. Louis, Mo.).

CYP24A1 = experiment: RT-qPCR of CYP24A1 (24-hydroxylase), marker of calcitriol responsiveness; assay type: cell-based, human; conditions: H305Q mutant, 10 nM calcitriol, ex vivo
Method: FIG. 3. […] (A) Control and HVDRR fibroblasts were treated with vehicle (0.1% ethanol) or 10 nM calcitriol for 6 hr. RT-qPCR assays were carried out for CYP24A1 a marker of calcitriol responsiveness. DM denotes double mutant with H305Q mutation in the VDR and BSCL2 mutation. […] Relative gene expression of UCP1 in WT and HVDRR fibroblasts differentiated with DIMR or DIMR plus 10 nM calcitriol for 14 days.
Real-time RT-PCR. […] RNA was isolated using RNeasy Plus Mini Kit (Qiagen, Valencia, Calif.). cDNA was prepared using Maxima Universal First Strand cDNA Synthesis kit (Fisher Scientific, Pittsburgh, Pa.). Real time PCR was performed using the DyNAmo ColorFlash qPCR kit (Fisher Scientific). Relative changes in mRNA expression were assessed by the 2-ΔΔC(T) method and normalized to that of the reference gene glyceraldehyde phosphate dehydrogenase (GAPDH). The values from vehicle treated normal control fibroblasts were set at 1. Assays were performed in triplicate.

| SMILES | induction of lipolysis compared to the H305Q single mutant ([1]; H305Q/BSCL2 double mutant) | increase in glycerol release compared to the undifferentiated cells ([1]; HVDRR cells differentiated with DIMR) | increase in glycerol release compared to the undifferentiated cells ([1]; WT control cells differentiated with DIMR) | induction of 24-hydroxylase (CYP24A1) expression by VDR (CYP24A1) |
| --- | --- | --- | --- | --- |
| CC(C)NCC(O)c1ccc(O)c(O)c1 (stereo not shown) [isoproterenol] | significantly less induction of lipolysis | 1.5-4 fold | 2.5 fold | – |
| C=C1/C(=C\C=C2/CCC[C@]3(C)[C@@H]([C@H](C)CCCC(C)(C)O)CC[C@@H]23)C[C@@H](O)C[C@@H]1O [calcitriol] | – | – | – | rescues the induction |
